Square brackets hold non-standard residues; d marks the D form. Peptide text beside a SMILES is read from it. Phe(4-CF3) = N[C@@H](Cc1ccc(C(F)(F)F)cc1)C(=O)O; Phe(4-Cl) = N[C@@H](Cc1ccc(Cl)cc1)C(=O)O; Dab(3S-OH) = NC[C@H](O)[C@H](N)C(=O)O; 4Pal = N[C@@H](Cc1ccncc1)C(=O)O; ΔZArg = N=C(N)NCC/C=C(\N)C(=O)O; dOrn = NCCC[C@@H](N)C(=O)O; Aze = O=C(O)[C@@H]1CCN1; Dab = NCC[C@H](N)C(=O)O; Dap = NC[C@H](N)C(=O)O
Experiments:
Test in all cases: MIC, broth microdilution (CLSI), reference strain
Conditions in all cases: CAMHB
[1] = test system: Pseudomonas aeruginosa ATCC 27853
[2] = test system: Escherichia coli ATCC 25922
[3] = test system: Staphylococcus aureus ATCC 13709
[4] = test system: Acinetobacter baumannii ATCC 19606

| SMILES | Pa: MIC Pseudomonas aeruginosa ATCC 27853 [1] | Ec: MIC Escherichia coli ATCC 25922 [2] | Sa: MIC Staphylococcus aureus ATCC 13709 [3] | Ab: MIC Acinetobacter baumannii ATCC 19606 [4] |
| --- | --- | --- | --- | --- |
| N=C(N)NCC/C=C(\NC(=O)[C@H](CCCCN)NC(=O)[C@H](Cc1cnc[nH]1)NC(=O)[C@@H]1CCCN1C(=O)[C@@H](CCCN)NC(=O)CNC(=O)[C@H](CN)NC(=O)[C@@H](NC(=O)[C@@H](N)CCCCN)[C@@H](O)CN)C(=O)O [221.1] (H-K[Dab(3S-OH)][Dap]G[dOrn]PHK[ΔZArg]-OH) | − (>32 μg/mL) | − (>32 μg/mL) | + (≤32 μg/mL) | − (>32 μg/mL) |
| C[C@H](NC(=O)[C@@H](NC(=O)[C@@H](N)CCCCN)[C@@H](O)CN)C(=O)NCC(=O)N[C@H](CCCN)C(=O)N1CCC[C@H]1C(=O)N[C@@H](CCC(N)=O)C(=O)N[C@@H](CCCCN)C(=O)N/C(=C\CCNC(=N)N)C(=O)O [24.117] (H-K[Dab(3S-OH)]AG[dOrn]PQK[ΔZArg]-OH) | − (>32 μg/mL) | − (>32 μg/mL) | + (≤32 μg/mL) | − (>32 μg/mL) |
| C[C@H](NC(=O)[C@@H](NC(=O)[C@@H](N)CCCCN)[C@@H](O)CN)C(=O)NCC(=O)N[C@H](CCCN)C(=O)N1CCC[C@H]1C(=O)N[C@@H](Cc1ccncc1)C(=O)N[C@@H](CCCCN)C(=O)N/C(=C\CCNC(=N)N)C(=O)O [24.108] (H-K[Dab(3S-OH)]AG[dOrn]P[4Pal]K[ΔZArg]-OH) | − (>32 μg/mL) | − (>32 μg/mL) | + (≤32 μg/mL) | − (>32 μg/mL) |
| C[C@H](NC(=O)[C@@H](NC(=O)[C@@H](N)CCCCN)[C@@H](O)CN)C(=O)NCC(=O)N[C@H](CCCN)C(=O)N1CC[C@H]1C(=O)N[C@@H](Cc1ccc(Cl)cc1)C(=O)N[C@@H](CCCCN)C(=O)N/C(=C\CCNC(=N)N)C(=O)O [24.72] (H-K[Dab(3S-OH)]AG[dOrn][Aze][Phe(4-Cl)]K[ΔZArg]-OH) | − (>32 μg/mL) | + (≤32 μg/mL) | ++ (≤8 μg/mL) | − (>32 μg/mL) |
| C[C@H](NC(=O)[C@@H](NC(=O)[C@@H](N)CCCCN)[C@@H](O)CN)C(=O)NCC(=O)N[C@H](CCCN)C(=O)N1CCC[C@H]1C(=O)N[C@@H](Cc1ccccc1)C(=O)N[C@@H](CCCCN)C(=O)N/C(=C\CCNC(=N)N)C(=O)O [24.134] (H-K[Dab(3S-OH)]AG[dOrn]PFK[ΔZArg]-OH) | − (>32 μg/mL) | + (≤32 μg/mL) | ++ (≤8 μg/mL) | − (>32 μg/mL) |
| COc1ccc(C[C@H](NC(=O)[C@@H]2CCCN2C(=O)[C@@H](CCCN)NC(=O)CNC(=O)[C@H](CCN)NC(=O)[C@@H](NC(=O)[C@@H](N)CCCCN)[C@@H](O)CN)C(=O)N[C@@H](CCCCN)C(=O)N/C(=C\CCNC(=N)N)C(=O)O)cc1 [21.10] (H-K[Dab(3S-OH)][Dab]G[dOrn]PY(Me)K[ΔZArg]-OH) | − (>32 μg/mL) | ++ (≤8 μg/mL) | ++ (≤8 μg/mL) | − (>32 μg/mL) |
| C[C@H](NC(=O)[C@@H](NC(=O)[C@@H](N)CCCCN)[C@@H](O)CN)C(=O)NCC(=O)N[C@H](CCCN)C(=O)N1CCC[C@H]1C(=O)N[C@@H](Cc1ccc(C(F)(F)F)cc1)C(=O)N[C@@H](CCCCN)C(=O)N/C(=C\CCNC(=N)N)C(=O)O [24.94] (H-K[Dab(3S-OH)]AG[dOrn]P[Phe(4-CF3)]K[ΔZArg]-OH) | − (>32 μg/mL) | ++ (≤8 μg/mL) | ++ (≤8 μg/mL) | − (>32 μg/mL) |
